Assay results: publication PMC10878532, “Sperm Toolbox—A selection of small molecules to study human spermatozoa” (PLOS ONE, 2024)

Key:
[1] = tested on: Testis-Specific Serine/Threonine Kinase 2 (TSSK2); set-up: method as in PMID 28952188; conditions: described as; cited from earlier work
human spermatozoa [2] = assay: Motility assay (non-capacitating conditions); type: cell-based
Procedure: (§1) To compare the effects of STB compounds on specific sperm functions (e.g. motility, acrosome reaction, viability), we screened them in multiple phenotypic functional assays described below. Each sperm function assay has been repeated in multiple donor pools (see Materials and methods), where each pool consists of cells donated from at least 3 different donors to address donor to donor variability. Each compound has been tested at two concentrations, 10 and 30 μM, and normalized to vehicle controls (DMSO, see Materials and methods). We have modified our assays from the previously published workflow by increasing incubation time and introducing conditions that support capacitation, which is a sperm maturation process required for fertilization. These changes expand the range of targets that we can explore in our assays. Our live-sperm-based high-throughput motility assays use an automated microscope to record short timelapse movies. These assays can be run in different protocols (S1 Fig). […] In this protocol, cells are incubated with compounds for 10 min prior to the first motility read-out. A second and third motility read-out were performed after 3h and 6h incubation. The second protocol, denoted ‘capacitation assay’, utilises conditions that support capacitation (S1 Fig). In this protocol, cells are kept in conditions supporting capacitation for 30 minutes prior to 30 minutes incubation with compound, followed by motility read-out. Both protocols allow sperm motility to be measured (0.5 sec time-lapse movies allow tracking of cells and calculation of sperm kinematics). In addition, the capacitation assay also scores hyperactivation (i.e. distinct movement patterns concomitant with capacitation which are crucial for fertilization) (Fig 2A).
Cells were rested for 1 h post density gradient centrifugation. 10 μL assay buffer was dispensed into assay ready plates, plates were put onto a shaker instrument for 30 seconds using 1,000 rpm, followed by a short pulse centrifugation. Plates were incubated for 15–30 mins at 37°C prior to addition of 10 μL of pooled cells (at 1 M/mL concentration). Plates were then incubated in a Yokogawa CV7000 microscope set at 37°C for 10 min prior to imaging. Imaging a 384-well plate requires ≤ 20 min using the following settings: 2 positions per well, 0.5 sec timelapse movies (3x binning; 11 ms exposure time, 22 ms interval time, […]). A second and a third timepoint was recorded after 3 h, and 6 h incubation at 37°C. Data has been processed as described in [8]. Assay results are from 5 separate donor pools.
(§2) For cell painting imaging data, plates of images were imported into OMERO [70]. Cell segmentation and feature extraction were performed using CellProfiler 3 [71] and using instructions from to normalize data. Timelapse data of motility assays was processed as previously described. Acrosome flow cytometry data was processed using NovoCyte Express (PerkinElmer), to gate out background debris, select for single cells and calculate percentage values of acrosome positive events. Sperm viability flow cytometry data was processed using iQue Forecyt (Satorius) to gate out background debris, select for single cells and calculate percentage values of propidium iodide positive events. For all sperm functional assays, data was normalized to DMSO control wells. Each plate had 16 DMSO wells. A median value of all 16 wells was used to calculated percentage change (pct_ch = ((value / DMSO_median) -1) * 100). For sperm viability we calculated fold-change (fc = 1 − (value / DMSO_median)). For each compound we calculated a p-value using a Welch’s t-test implemented in scipy (scipy.stats.ttest_ind) comparing a compounds effect to DMSO controls.

spermatozoa = tested on: spermatozoa; set-up: method as in per compound as listed in column References of Table 1; conditions: summaries of reported effects; ref per compound as listed in Table 1; cited from earlier work
LRRK2 kinase = conditions: described as; cited from earlier work
human spermatozoa [3] = assay: Sperm viability assay (propidium iodide, flow cytometry); type: cell-based; conditions: 3h with compound
Procedure: In this assay, cells are incubated for 3h with compound in non-capacitating media, prior to viability assessment.
Cells were incubated with compounds for a total of 3h at 37°C. 20 min prior, propidium iodide was added (1.5 mM solution, Sigma, final dilution 1:2000). Plates were analysed using a Satorius iQue Screener with settings to allow for a sampling time of ≤30 min per 384-well plate. Gating of data has been performed using the flow cytometer software to export counts of gated populations. This assay was tested in 5 separate donor pools.
as §2

HepG2 = HepG2 cytotoxicity assay (resazurin based); type: cell-based; conditions: 70h incubation
human spermatozoa [4] = assay: Acrosome assay, protocol 1 (3h incubation with compound, no agonist; flow cytometry, PNA); type: cell-based; conditions: 3h with compound, no agonist addition
Procedure: The acrosome assays utilize a high-throughput flow cytometer (S1 Fig) to score for compounds inducing the acrosome reaction, using peanut agglutinin conjugated to a fluorescent dye to label the outer acrosomal membrane. We have developed two different screening protocols, named ‘acrosome 1’ and ‘acrosome 2’ (S1 Fig). […] This addition allowed measurement of inhibition of acrosome reaction (Fig 2B).
(§3) In both experimental protocols, 20 μL of pooled cells (at 1 M/mL concentration) were capacitated for 3 h in presence of compounds at 37°C and 5% CO2. In protocol a, cells were then stained with PNA-Alexa647 (ThermoFisher, 1 mg/mL, final dilution 1:1000) and Hoechst dye for 30 min at 37°C and 5% CO2, followed by 10 min fixation at RT by adding 20 μL of 4% paraformaldehyde (Sigma) in PBS. In mode b, a cocktail of progesterone, prostaglandin A and NH4Cl was added to all compound wells and incubated for an additional 1 h at 37°C and 5% CO2 to induce acrosome reaction. This was followed by fixation and staining protocol as for mode a. In both protocols fixatives and stains were removed and cells were resuspended in PBS, using a 405 platewasher. Plates were then measured on a Novocyte Advanteon high-throughput flow cytometer. Gating of data has been performed using the flow cytometer software to export counts of gated populations. The Acrosome 1 protocol using 3h incubation with compounds was run in 7 separate donor pools. The Acrosome 2 protocol using 3h incubation with compound followed by 1h stimulation of acrosome reaction was run in 5 separate donor pools.
as §2

human spermatozoa [5] = assay: Acrosome assay, protocol 2 (3h with compound, then 1h agonist cocktail); type: cell-based; conditions: cluster in Fig 3A; 3h with compound then agonist mix
Procedure: The acrosome assays utilize a high-throughput flow cytometer (S1 Fig) to score for compounds inducing the acrosome reaction, using peanut agglutinin conjugated to a fluorescent dye to label the outer acrosomal membrane. We have developed two different screening protocols, named ‘acrosome 1’ and ‘acrosome 2’ (S1 Fig). Both protocols are capable of measuring induction of the acrosome reaction upon compound incubation. However, in the acrosome 2 assay, a mixture of physiological agonists of the acrosome reaction is used after cells have been incubated with compounds for 3h under conditions that support capacitation. This addition allowed measurement of inhibition of acrosome reaction (Fig 2B).
as §3
as §2, with “Sperm viability flow cytometry data was processed using iQue Forecyt (Satorius) to gate out background debris, select for single cells and calculate percentage values of propidium iodide positive events. For all sperm functional assays, data was normalized to DMSO control wells. Each plate had 16 DMSO wells.” left out

HeLa = HeLa cell painting cytotoxicity assay; type: cell-based; conditions: 24h compound incubation
Procedure: The HeLa-based assay uses the cell painting assay [11], while the HepG2 assay utilizes a resazurin based viability read-out [64].
Cell were incubated with compounds for 24h.
• 10 μL of MitoTracker (Life Technologies, M22426, 1 mM stock in DMSO as recommended by the vendor) is added to 50 μL of media (1:2000 final dilution) • Phalloidin-Alexa594 (Life Technologies, A12381, 66 μM stock in methanol as recommended by the vendor, 1:500 final dilution) • WGA-Alexa594 (Life Technologies, W11262, 5 mg/mL stock, 1:250 final dilution) was used • DAPI (5 mg/mL stock; 1:1000 final dilution) was used to stain DNA • 20 μL of staining solution was used • PBS was used for washing steps
For cell painting imaging data, plates of images were imported into OMERO [70]. Cell segmentation and feature extraction were performed using CellProfiler 3 [71] and using instructions from [11] to normalize data.

human spermatozoa [6] = assay: Capacitation assay (motility and hyperactivation under capacitating conditions); type: cell-based; conditions: cluster in Fig 3A; 30 min capacitation then 30 min with compound
Procedure: as §1
Cells were capacitated for 30 min at 37°C and 5% CO2. 10 μL assay buffer was dispensed into assay ready plates, plates were put onto a shaker instrument for 30 seconds using 1,000 rpm, followed by a short pulse centrifugation. Plates were incubated for 15–30 mins at 37°C and 5% CO2 prior to addition of 10 μL of pooled cells (at 1 M/mL concentration). This was followed by a 20 min compound incubation step at 37°C and 5% CO2. Plates were then incubated in our CV7000 microscope set at 37°C and 5% CO2 for 10 min prior to imaging. […]
For cell painting imaging data, plates of images were imported into OMERO [70]. […] A median value of all 16 wells was used to calculated percentage change (pct_ch = ((value / DMSO_median) -1) * 100). For sperm viability we calculated fold-change (fc = 1 − (value / DMSO_median)). For each compound we calculated a p-value using a Welch’s t-test implemented in scipy (scipy.stats.ttest_ind) comparing a compounds effect to DMSO controls.

SMILES | TSSK2 inhibition [1] | sperm motility (human spermatozoa [2]) | Published Phenotype (spermatozoa) | LRRK2 kinase inhibition (LRRK2 kinase) | effects on sperm viability (human spermatozoa [3]) | general cytotoxicity (HepG2) (HepG2) | acrosome reacted cells without agonist cocktail (human spermatozoa [4]) | acrosome reaction (acrosome reacted cells) (human spermatozoa [5]) | progressive motility (human spermatozoa [2]; non-capacitating conditions, Fig 2) | general cytotoxicity (HeLa) (HeLa) | hyperactive motility (human spermatozoa [6])
CNS(=O)(=O)c1ccccc1Nc1nc(Nc2ccc(C3CCN(C)CC3)cc2OC)ncc1Cl [Compound 19] | potent | decrease sperm motility | Blocks TSSK; similarity to brigatinib |  |  |  |  |  |  |  | 
COc1cc(C(=O)N2CCC(N3CCN(C)CC3)CC2)ccc1Nc1ncc2c(n1)N(C)c1ccccc1C(=O)N2C [LRRK2-IN-1] |  |  |  | selective inhibitor | do not show effects | do not show effects | no change | significantly increased | enhances motility | do not show effects | significantly increased
